According to PubChem BioAssay AID1963849 (Molecular Pharmacology Branch, DTP, NCI, 2024):
“And” between values parts separate entries of the source, which are not always exact repeats. Equal entries are not always repeated.

Test system: 299254-011-R-J1-PDC complex spheroid viability
Experiment: Anticancer human tumor 299254-011-R-J1-PDC patient-derived melanoma cell line growth inhibition [POLQ]
Settings: for viability, T/C: stronger effect = lower value
Protocol: Multicellular complex tumor spheroid response to Polymerase (POL) inhibitors (novobiocin, ART-558, RP6685) in combination with a variety of drugs and investigational agents in selected tumor cell lines
The POL inhibitors (novobiocin, ART-558, and RP6685) were evaluated both individually and in combination with standard of care and investigational anticancer small molecules within a complex spheroid model of solid tumors. . Complex spheroids include a stromal component modeled by human endothelial cells (HUVEC) and fibroblasts modeled by human mesenchymal stem cells (MSCs). The concentration ranges selected for each drug and investigational agent were based upon clinically achievable concentrations if the clinical Cmax of the agent was known.
Compounds. The drugs and investigational agents: novobiocin (NSC847541), ART-558 (NSC835418), RP-6685 (NSC848927), peposertib (NSC802822), ceralasertib (NSC780249), elimusertib (NSC800525), camonsertib (NSC841442), AZD-1390 (NSC803789), olaparib (NSC753686), talazoparib (NSC767125), rucaparib (NSC756644), sotorasib (NSC818433), MRTX-1133 (NSC836407), SN-38 (NSC673596), topotecan (NSC609699), epotoside (NSC141540), doxorubicin (NSC123127), gemcitabine (NSC613327), 5-fluorouracil (NSC19893), paclitaxel (NSC125973), vemurafenib (NSC761431), MSA-2 (NSC828583), SN-011 (NSC837082), adavosertib (NSC754352), prexasertib (NSC758257), carboplatin (NSC241240) and oxaliplatin (NSC266046), were obtained from the National Cancer Institute (NCI) Developmental Therapeutics Program Chemical Repository (21). The FDA-approved anticancer drug set is available from the Developmental Therapeutics Program at https://dtp.cancer.gov/organization/dscb/obtaining/. […] The stock solutions were prepared in dimethyl sulfoxide (DMSO, Sigma-Aldrich, St. Louis, MO, cat. D2650), except for the platinum compounds which were prepared in saline (Quality Biological, Gaithersburg, MD, cat. 114-055-101), at 800-fold the tested concentration and stored at -70 degrees C prior to their use. All drugs and investigational agents were tested over a range starting from a high concentration at or near the clinical Cmax and decreasing in half-log increments. If the clinical Cmax for an agent had not been determined, the highest concentration tested was 10 microM, except for SN-38, which was tested at a high concentration of 1 microM.
Cell Culture. All cells were maintained in an incubator at 37 degrees C and 5% CO2 with 95% humidity. The PDC lines were cultured according to standard operating procedures established by the NCI PDMR (https://pdmr.cancer.gov). Table 3 of the manuscript, lists the cell lines along with the number of the three cell types plated to form the mct-spheroids and media for tumor cell growth. After thawing, all PDC lines, except 997537-175-T-J1-PDC and 415267-285-R-J2-PDC, were cultured in Matrigel-coated flasks prepared with a working solution of 1X Ham's F-12 nutrient mix, without supplementation (Thermo Fisher Scientific, cat. 11765054), 100 U/mL penicillin-streptomycin (Thermo Fisher Scientific, cat. 15140122), and 2.5% Matrigel (Corning Inc., Corning, NY, cat. 354248) for the first three passages. The two PDC lines 997537-175-T-J1-PDC and 415267-285-R-J2-PDC were cultured on uncoated flasks. The 857933-349-R-J2-PDC line was cultured in 6C/Colon 1B media containing advanced DMEM/F-12 (Thermo Fisher Scientific, cat. 12634028), 10 mM HEPES (Thermo Fisher Scientific, cat. 15630080), 1X GlutaMAX supplement (Thermo Fisher Scientific, cat. 35050061), 0.1 mg/mL primocin (InvivoGen, San Diego, CA, cat. ant-pm-2), 10% defined fetal bovine serum, heat inactivated (HyClone Laboratories Inc., Logan, UT, cat. SH30070.03HI), 50% L-WRN conditioned media (ATCC, cat. CRL-3276), 1.25 mM N-Acetyl-L-cysteine (Sigma-Aldrich, cat. A9165), 10 mM nicotinamide (Sigma-Aldrich, cat. N0636), 1X B-27 supplement (Thermo Fisher Scientific, cat. 17504044), 1X N-2 supplement (Thermo Fisher Scientific, cat. […]
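Also: spheroids exposed to drugs for one week before measurement.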
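For viability, T/C in this document: percent viability relative to DMSO vehicle control taken as 100%.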

Q: For COC1C(OC(N)=O)C(O)C(Oc2ccc3c(O)c(NC(=O)c4ccc(O)c(CC=C(C)C)c4)c(=O)oc3c2C)OC1(C)C (stereo unspecified), which viability, T/C (compound 3.16 µM) is on record?
A: The viability, T/C was 102% [middle of 13 runs].

Q: And the IC50 (compound alone, run of 11/27/2023)?
A: Its IC50 is over 10 µM.

Q: Which results are given for CNCc1ccc(-c2[nH]c3cc(F)cc4c3c2CCNC4=O)cc1?
A: viability, T/C (compound 0.0316 µM): 117% and 108% and 100%; viability, T/C (compound 0.1 µM): 95.8% and 94.7% and 99.7%; viability, T/C (compound 0.316 µM): 113% and 105% and 97.2%; viability, T/C (compound 1 µM): 109% and 96.3% and 92.8%; viability, T/C (compound 3.16 µM): 111% and 113% and 110%; viability, T/C (compound 10 µM): 119% and 107% and 109%; IC50 (curve of compound): > 10 µM

Q: What does the source list for CCc1cc2c(N3CCc4c(cc(Cn5ccnc5)cc4-c4cn(C)nc4C(F)(F)F)C3=O)ccnc2c(OC)n1 + Cc1cccc(N(C)C(=O)C2C(O)CCN2c2nc(C)cc(C(F)(F)F)c2C#N)c1?
A: IC50 (curve of first compound, second compound 0.0316 µM): > 10 µM; IC50 (curve of first compound, second compound 0.1 µM): > 10 µM; IC50 (curve of first compound, second compound 0.316 µM): > 10 µM; IC50 (curve of first compound, second compound 1 µM): > 10 µM; IC50 (curve of first compound, second compound 3.16 µM): > 10 µM; IC50 (curve of first compound, second compound 10 µM): > 10 µM; viability, T/C (second compound 0.0316 µM, first compound 0.0316 µM): 97.6%; viability, T/C (second compound 0.0316 µM, first compound 0.1 µM): 119%; viability, T/C (second compound 0.0316 µM, first compound 0.316 µM): 98.9%; viability, T/C (second compound 0.0316 µM, first compound 1 µM): 106%; viability, T/C (second compound 0.0316 µM, first compound 3.16 µM): 109%; viability, T/C (second compound 0.0316 µM, first compound 10 µM): 80.4%; viability, T/C (second compound 0.1 µM, first compound 0.0316 µM): 98.7%; viability, T/C (second compound 0.1 µM, first compound 0.1 µM): 102%; viability, T/C (second compound 0.1 µM, first compound 0.316 µM): 99.7%; viability, T/C (second compound 0.1 µM, first compound 1 µM): 99.4%; viability, T/C (second compound 0.1 µM, first compound 3.16 µM): 99.1%; viability, T/C (second compound 0.1 µM, first compound 10 µM): 86.1%; viability, T/C (second compound 0.316 µM, first compound 0.0316 µM): 98.5%; viability, T/C (second compound 0.316 µM, first compound 0.1 µM): 91.2%; viability, T/C (second compound 0.316 µM, first compound 0.316 µM): 116%; viability, T/C (second compound 0.316 µM, first compound 1 µM): 112%; viability, T/C (second compound 0.316 µM, first compound 3.16 µM): 84.2%; viability, T/C (second compound 0.316 µM, first compound 10 µM): 72.8%; viability, T/C (second compound 1 µM, first compound 0.0316 µM): 110%; viability, T/C (second compound 1 µM, first compound 0.1 µM): 96.9%; viability, T/C (second compound 1 µM, first compound 0.316 µM): 113%; viability, T/C (second compound 1 µM, first compound 1 µM): 107%; viability, T/C (second compound 1 µM, first compound 3.16 µM): 91%; viability, T/C (second compound 1 µM, first compound 10 µM): 86%; viability, T/C (second compound 3.16 µM, first compound 0.0316 µM): 106%; viability, T/C (second compound 3.16 µM, first compound 0.1 µM): 96.9%; viability, T/C (second compound 3.16 µM, first compound 0.316 µM): 101%; viability, T/C (second compound 3.16 µM, first compound 1 µM): 105%; viability, T/C (second compound 3.16 µM, first compound 3.16 µM): 95.5%; viability, T/C (second compound 3.16 µM, first compound 10 µM): 76.4%; viability, T/C (second compound 10 µM, first compound 0.0316 µM): 94%; viability, T/C (second compound 10 µM, first compound 0.1 µM): 112%; viability, T/C (second compound 10 µM, first compound 0.316 µM): 105%; viability, T/C (second compound 10 µM, first compound 1 µM): 82.1%; viability, T/C (second compound 10 µM, first compound 3.16 µM): 75.7%; viability, T/C (second compound 10 µM, first compound 10 µM): 79%
